From US20260137698A1, “CYCLIN-DEPENDENT KINASE 7 INHIBITORS” (JOINT STOCK COMPANY «BIOCAD», priority 2022, published 2026) come the findings set out here.

Each structure is given as a SMILES string. Where two headings read alike, the source gives them in different places. Bounds are passed on as bounds.

Series [1] relates to MDA-MB-468 (triple negative breast cancer). The series can be described thus: Antiproliferative assay on MDA-MB-468 cells (AlamarBlue, 96 h). The conditions noted are these: Homo sapiens, mean value from several measurements. Type of series: cell-based.
The target of series [2] is CDK7/Cyclin H/MNAT1 (Homo sapiens, UniProt P50613). The series can be described thus: Inhibition of CDK7/Cyclin H/MNAT1 kinase activity (ADP-Glo). Type of series: biochemical. In short, it runs like this: (§1)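 ADP-Glo luminescence quantified ATP consumption after a 40-60 minute, 25° C. reaction with ATP plus CDKtide, Histone H1 or PDKtide, following a 10-minute compound–kinase preincubation in DTT-supplemented kinase buffer A. Compounds spanned 11 concentrations from 50 μM in 4-fold dilutions; IC50 fitted to a four-parameter model.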
Chain of CDK7/Cyclin H/MNAT1 (P50613 whole entry): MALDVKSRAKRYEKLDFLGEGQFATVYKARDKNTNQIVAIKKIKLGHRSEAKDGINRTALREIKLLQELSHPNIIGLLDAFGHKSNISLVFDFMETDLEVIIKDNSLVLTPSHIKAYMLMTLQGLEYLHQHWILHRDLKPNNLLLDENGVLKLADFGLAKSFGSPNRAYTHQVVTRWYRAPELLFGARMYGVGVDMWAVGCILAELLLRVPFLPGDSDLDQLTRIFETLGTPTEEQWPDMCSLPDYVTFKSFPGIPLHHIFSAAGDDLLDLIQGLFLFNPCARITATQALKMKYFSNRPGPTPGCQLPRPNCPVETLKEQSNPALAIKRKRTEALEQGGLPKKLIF
Chain of CDK7/Cyclin H/MNAT1 (P51946 whole entry partner): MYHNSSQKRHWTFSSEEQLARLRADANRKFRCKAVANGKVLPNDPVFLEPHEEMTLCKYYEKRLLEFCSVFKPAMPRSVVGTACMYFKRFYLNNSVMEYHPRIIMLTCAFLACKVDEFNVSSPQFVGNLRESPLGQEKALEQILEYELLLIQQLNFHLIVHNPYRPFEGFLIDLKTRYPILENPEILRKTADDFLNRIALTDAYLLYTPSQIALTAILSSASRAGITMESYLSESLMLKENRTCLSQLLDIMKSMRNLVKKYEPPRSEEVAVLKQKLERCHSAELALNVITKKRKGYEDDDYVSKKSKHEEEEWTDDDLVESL
Chain of CDK7/Cyclin H/MNAT1 (P51948 whole entry partner): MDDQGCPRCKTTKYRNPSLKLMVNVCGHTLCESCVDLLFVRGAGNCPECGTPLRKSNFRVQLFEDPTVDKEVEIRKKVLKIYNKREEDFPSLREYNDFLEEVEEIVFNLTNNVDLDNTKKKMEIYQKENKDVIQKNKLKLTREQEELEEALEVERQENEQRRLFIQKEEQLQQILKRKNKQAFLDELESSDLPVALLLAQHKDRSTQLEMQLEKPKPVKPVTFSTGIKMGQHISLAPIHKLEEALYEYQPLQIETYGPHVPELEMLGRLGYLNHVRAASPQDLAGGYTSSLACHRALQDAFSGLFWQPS

Series [3] has as its target CDK13/Cyclin K (Homo sapiens, UniProt Q14004). The series can be described thus: Inhibition of CDK13/Cyclin K kinase activity (ADP-Glo). It is filed as biochemical. As to the method:
Measurements were carried out in a 5 μl reaction volume using a 384-well plate (Corning Inc., order no. 4513). The analyzed substances were titrated from 50 μM in increments of 4 at 11 concentration points in a normal strength kinase buffer A (Thermo Fisher Scientific Inc, cat. no. PV3189) supplemented with DTT (Sigma, orde. no. 646563-10X.5ML) and prepared with water (Panreac, order no. 701074). Kinase was diluted in an analogous buffer, mixed with test compounds in plate wells and preincubated for 10 minutes at 25° C. Following incubation, a mixture of reaction substrate (CDKtide (SignalChem, order no. C06-58) or Histone H1 (SignalChem, order no. H10-54N) or PDKtide (SignalChem, order no. P10-58) and ATP (SignalChem, order no. V915B) prepared on a normal strength kinase buffer A was added. 1% solution of dimethyl sulfoxide (DMSO) (Sigma-Aldrich, order no. D2438) in the reaction volume was used as a negative control. The final concentrations of all reaction components are shown in Table 5. The plate was centrifuged at 400 rcf (Eppendorf, 5804 R) for 1 minute and incubated for 40-60 minutes at 25° C. The amount of ATP consumed in the kinase reaction was then measured using the ADP-Glo™ detection system. Luminescence signal was measured using Spark 20M tablet multifunction reader (Tecan Group Ltd, Switzerland). IC50 value was calculated using Magellan 7.2 (Tecan Group Ltd, Switzerland) by approximating experimental points by four-parameter model with the optimization by Levenberg-Marquardt:
[formula] • where A is the upper asymptote; D is the lower asymptote; C is IC50, half-maximal inhibitory concentration of kinase, nM; B is the curvature (slope).
Background: ADP-Glo first removes unused ATP, then detects ADP through luciferase.

Series [4] deals with NCl-H82 (small cell lung cancer). The series can be described thus: Antiproliferative assay on NCl-H82 cells (AlamarBlue, 120 h). Type of series: cell-based. The conditions noted are these: mean value from several measurements.
A short description of series [5]: Passive membrane permeability through PAMPA artificial membrane, pH 7.4. Type of series: in vitro ADME. To be noted: pH 7.4, 10 μmol, 20 hours at room temperature, mean of multiple measurements, read-out: PAMPA passive permeability Pe. The method, boiled down: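 Compound at 10 μmol in 0.01 M phosphate buffer pH 7.4 placed in donor wells over lecithin-phospholipid-impregnated PVDF filter, buffer in acceptor; 20 h at room temperature. Donor and acceptor levels measured by RP-HPLC-UV; Pe (cm/s) and membrane retention R (%) calculated.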

In series [6] the target is CDK9/Cyclin K (Homo sapiens, UniProt P50750). The series can be described thus: Inhibition of CDK9/Cyclin K kinase activity (ADP-Glo). It is filed as biochemical. The method, boiled down: as §1
Chain of CDK9/Cyclin K (P50750 whole entry): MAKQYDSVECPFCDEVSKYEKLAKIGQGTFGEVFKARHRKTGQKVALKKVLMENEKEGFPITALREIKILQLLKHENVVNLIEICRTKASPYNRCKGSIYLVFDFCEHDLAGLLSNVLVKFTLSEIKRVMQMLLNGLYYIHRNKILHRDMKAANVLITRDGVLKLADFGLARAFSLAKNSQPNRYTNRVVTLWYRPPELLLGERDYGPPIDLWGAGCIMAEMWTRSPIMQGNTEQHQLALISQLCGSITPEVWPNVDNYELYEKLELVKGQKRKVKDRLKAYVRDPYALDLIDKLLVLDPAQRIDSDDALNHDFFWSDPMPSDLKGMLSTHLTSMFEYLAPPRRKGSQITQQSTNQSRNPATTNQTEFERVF
Chain of CDK9/Cyclin K (O75909 whole entry partner): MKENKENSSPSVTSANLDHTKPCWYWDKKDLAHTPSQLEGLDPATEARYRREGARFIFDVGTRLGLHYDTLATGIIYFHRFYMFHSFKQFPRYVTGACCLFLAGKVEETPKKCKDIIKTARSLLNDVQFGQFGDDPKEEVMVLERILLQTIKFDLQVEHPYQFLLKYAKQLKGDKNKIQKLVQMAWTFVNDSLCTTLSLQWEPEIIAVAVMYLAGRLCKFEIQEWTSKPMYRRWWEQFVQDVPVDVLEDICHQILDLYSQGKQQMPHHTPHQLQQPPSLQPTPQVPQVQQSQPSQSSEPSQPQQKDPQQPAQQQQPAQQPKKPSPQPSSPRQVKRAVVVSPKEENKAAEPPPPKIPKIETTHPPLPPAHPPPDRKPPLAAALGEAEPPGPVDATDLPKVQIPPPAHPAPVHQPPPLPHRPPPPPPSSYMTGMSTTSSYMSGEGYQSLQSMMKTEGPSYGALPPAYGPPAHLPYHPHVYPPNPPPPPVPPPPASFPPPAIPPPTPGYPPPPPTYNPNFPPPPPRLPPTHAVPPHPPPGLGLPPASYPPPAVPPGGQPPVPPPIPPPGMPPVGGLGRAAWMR
The target of series [7] is CDK2/Cyclin A (Homo sapiens, UniProt P24941). The series can be described thus: Inhibition of CDK2/Cyclin A kinase activity (ADP-Glo). Type of series: biochemical. In short, it runs like this: as §1
The nature of series [8]: General cytotoxicity on primary differentiated HepaRG cells (72 h). It is filed as cell-based. The conditions noted are these: human, general toxicity, mean value from several measurements. The method, boiled down:
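Test compounds spanning 200 μM to 0.2 nM were incubated for 72 hours with primary differentiated HepaRG cells. Cells had been kept one week in supplemented hepatic medium and seeded the night before at 25×10^3 per well, and viability was then measured.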

A short description of series [9]: Microsomal stability in human liver microsomes (HLM). The conditions noted are these: 1 μM test compound. It is filed as in vitro ADME. As to the method: The procedure for investigating the metabolism of selected compounds was carried out in microsomal fractions of the liver (of rats, mice, humans) in the presence of a phase I metabolism cofactor (NADPH).
The rate of enzymatic decomposition of the compound in liver microsomes in in vitro analysis was determined by keeping a reaction mixture comprising 0.5 mg/ml of pooled human, rat or mouse liver microsomes, 1 μM test compound, 1.5 mM […] (Carbosynth, UK, cat. no. NN108711101) and 1.5 mM magnesium chloride in 0.1 M sodium phosphate buffer (pH 7.4) in a solid-state thermostat at 37° C. (XenoTech, USA, order no. H2610, cat. no. R1000, cat. no. M1000). Incubation was carried out in three replicates.
To determine the stability of compounds under sample preparation conditions, an aliquot in two replicates with the test compound and a microsomal fraction devoid of the NADPH cofactor, which was incubated for 40 minutes at 37° C.
Reactions were stopped at 0, 10, 20, 30 and 40 min time points by way of adding an ice mixture of acetonitrile:methanol (3:1) comprising an internal standard.
Samples were then centrifuged to remove the precipitated protein, supernatants were analyzed using HPLC-MS/MS to determine in vitro clearance (CLint) of the compounds. The Agilent 6410 mass spectrometer (Agilent, USA) combined with the Agilent 1260 Infinity II HPLC liquid chromatograph (Agilent, USA) and a cooling autosampler controlled by MassHunter software (Agilent, USA) was used as an HPLC-MS/MS system. Chromatographic analysis was performed on a C18 reversed-phase HPLC column (Agilent, Waters or equivalent) in a gradient elution mode in a system of mobile phases: 0.1% formic acid in water/0.1% formic acid in acetonitrile, flow rate: 0.5 ml/min, column T=35° C. Mass spectrometric detection was performed with electrospray ionization in multiple reaction monitoring mode. Precursor ions, fragment ions and collision energies for each substance were selected experimentally.
A graph of dependence of the logarithmic ratio between substance's peak area and internal standard's peak area vs time was built. The dependent coefficient of this line corresponded to the elimination rate constant k, on the basis of which the in vitro clearance CLint was calculated:
Based on resulting in vitro clearance CLint values, the microsomal stability of the selected compounds for humans, rats and mice was concluded.

[10] abbreviates: mean of multiple measurement series, ATP 10 μM, read-out: CDK7/Cyclin H/MNAT1 IC50.
Setting [11] is: mean value from several measurements, read-out: IC50 CDK7/Cyclin H/MNAT.
Setting [12] is: mean value from several measurements, read-out: IC50 CDK13/Cyclin K.
The mark [13] stands for this setting: mean of multiple measurement series, ATP 50 μM, read-out: CDK9/Cyclin K IC50.
The mark [14] stands for this setting: mean value from several measurements, read-out: IC50 CDK9/Cyclin K.
Setting [15] is: mean of multiple measurement series, ATP 50 μM, read-out: CDK2/Cyclin A IC50.
The mark [16] stands for this setting: mean value from several measurements, read-out: IC50 CDK2/Cyclin A.

Chain of CDK13/Cyclin K (Q14004 whole entry): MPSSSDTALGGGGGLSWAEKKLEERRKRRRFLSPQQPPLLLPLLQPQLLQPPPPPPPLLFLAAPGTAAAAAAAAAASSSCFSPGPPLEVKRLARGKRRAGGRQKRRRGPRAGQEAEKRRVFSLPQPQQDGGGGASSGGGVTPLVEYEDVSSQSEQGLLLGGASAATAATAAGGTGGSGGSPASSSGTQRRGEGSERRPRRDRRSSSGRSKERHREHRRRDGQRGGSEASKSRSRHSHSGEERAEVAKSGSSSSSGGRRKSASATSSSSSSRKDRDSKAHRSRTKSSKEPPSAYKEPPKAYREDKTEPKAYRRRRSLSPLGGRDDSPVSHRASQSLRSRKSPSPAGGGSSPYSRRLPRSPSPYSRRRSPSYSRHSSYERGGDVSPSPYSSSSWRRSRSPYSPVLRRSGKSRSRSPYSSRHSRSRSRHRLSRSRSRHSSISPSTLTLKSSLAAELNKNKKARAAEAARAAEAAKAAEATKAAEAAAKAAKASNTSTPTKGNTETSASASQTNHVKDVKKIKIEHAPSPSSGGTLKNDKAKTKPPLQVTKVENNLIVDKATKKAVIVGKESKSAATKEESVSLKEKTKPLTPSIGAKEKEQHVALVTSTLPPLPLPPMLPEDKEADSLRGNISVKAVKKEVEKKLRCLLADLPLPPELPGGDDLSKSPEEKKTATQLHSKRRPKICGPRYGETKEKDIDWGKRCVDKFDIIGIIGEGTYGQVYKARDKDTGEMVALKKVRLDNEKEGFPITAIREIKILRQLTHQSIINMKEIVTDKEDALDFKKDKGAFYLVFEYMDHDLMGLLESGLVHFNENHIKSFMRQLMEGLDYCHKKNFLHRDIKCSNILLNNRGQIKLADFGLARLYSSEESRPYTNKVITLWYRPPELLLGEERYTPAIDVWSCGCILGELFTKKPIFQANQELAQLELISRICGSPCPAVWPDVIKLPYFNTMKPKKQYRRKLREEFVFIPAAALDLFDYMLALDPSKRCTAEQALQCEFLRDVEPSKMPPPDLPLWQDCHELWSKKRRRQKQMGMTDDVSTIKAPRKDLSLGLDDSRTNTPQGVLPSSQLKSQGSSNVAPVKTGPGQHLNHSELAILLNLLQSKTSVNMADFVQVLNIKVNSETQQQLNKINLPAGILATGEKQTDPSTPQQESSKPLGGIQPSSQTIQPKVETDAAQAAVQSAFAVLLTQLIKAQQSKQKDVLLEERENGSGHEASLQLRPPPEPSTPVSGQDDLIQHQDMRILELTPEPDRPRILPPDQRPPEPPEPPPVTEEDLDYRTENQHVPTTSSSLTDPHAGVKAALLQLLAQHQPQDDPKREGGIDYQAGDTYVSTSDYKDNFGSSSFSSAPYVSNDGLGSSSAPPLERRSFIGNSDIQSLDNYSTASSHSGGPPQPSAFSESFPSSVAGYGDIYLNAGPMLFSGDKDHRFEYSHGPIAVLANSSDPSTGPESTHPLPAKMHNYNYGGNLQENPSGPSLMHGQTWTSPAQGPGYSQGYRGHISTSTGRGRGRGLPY
Chain of CDK13/Cyclin K (O75909 whole entry partner): as the sequence (O75909 whole entry partner) above

With `CN1CCCc2c(-c3nc(N[C@H]4CCC5(CC5)NC4)ncc3C(F)(F)F)c[nH]c2C1=O` [CDK7_1201, 3-[2-({4-azaspiro[2.5]octan-6-yl}amino)-5-(trifluoromethyl)py-rimidin-4-yl]-7-methyl-1H,4H,5H,6H,7H, 8H-pyrrolo[2,3-c]azepin-8-one], the IC50 in series [1] is under 10 nM; in series [2] (setting [10]), under 5 nM; in series [2] (setting [11]), under 5 nM; in series [3] (mean of multiple measurement series, ATP 10 μM, read-out: CDK13/Cyclin K IC50) it was 65 nM; in series [3] (setting [12]), 50 to 200 nM; in series [4], under 10 nM. For the same compound, the IC50 was 112 nM in series [6] (setting [13]), 50 to 200 nM in series [6] (setting [14]), 4500 nM in series [7] (setting [15]) and over 200 nM in series [7] (setting [16]). Moreover, the Papp at 20 h, 10 μmol in [5] was 5 to 10 ×10⁻⁶ cm/s. In addition, the CC50 at 72 h in [8] was in the range of 500 to 2000 nM.

For the compound `Cn1nnc(-c2cc(-c3nc(N[C@H]4CCCNC4)ncc3C(F)(F)F)c[nH]2)n1` [CDK7_1000, 4-[5-(2-methyl-2H-1,2,3,4-tetrazol-5-yl)-1H-pyrrol-3-yl]-N-[(3S)-piperidin-3-yl]-5-(trifluoromethyl)py-rimidin-2-amine], the IC50 in [1] is 10 to 100 nM; in [2] (setting [11]), under 5 nM; in series [3] (setting [12]) it was 5 to 50 nM; in series [4] it was 10 to 100 nM; in series [6] (setting [14]), 5 to 50 nM; in [7] (setting [16]), over 200 nM. The Papp at 20 h, 10 μmol in series [5] was under 1 ×10⁻⁶ cm/s. Besides, the CC50 at 72 h in [8] is 100 to 500 nM.

As to `FC(F)(F)c1cnc(N[C@H]2CCCNC2)nc1-c1c[nH]c(-c2noc(C3CC3)n2)c1` [CDK7_1103], the IC50 was 10 to 100 nM in series [1]; under 5 nM in [2] (setting [11]); 10 to 100 nM in series [4]; 50 to 200 nM in series [6] (setting [14]); over 200 nM in series [7] (setting [16]). The “In vitro clearance CLint (HLM)” value in [9] is recorded as “A (Clint < 20 μl/(min · mg of protein))”. The CC50 at 72 h in series [8] fell in the range of 100 to 500 nM.

Regarding `Cc1noc(C)c1-n1ccc2c(-c3nc(N[C@H]4CCCNC4)ncc3C(F)(F)F)c[nH]c2c1=O` [CDK7_924, 6-(3,5-dimethyl-1,2-oxazol-4-yl)-3-(2-{[(3S)-piperidin-3-yl]amino}-5-(trifluoromethyl)pyrimidin-4-yl)-1H,6H,7H-pyrrolo[2,3-c]pyridin-7-one], the IC50 in series [1] was under 10 nM; in series [2] (setting [10]), under 5 nM; in series [2] (setting [11]), under 5 nM; in [4], 10 to 100 nM; in series [6] (setting [13]) it was 431 nM; in series [6] (setting [14]) it was over 200 nM. Also, the IC50 in series [7] (setting [15]) is 7800 nM; in series [7] (setting [16]), over 200 nM. Moreover, in series [9], the “In vitro clearance CLint (HLM)” value is reported as “A (Clint < 20 μl/(min · mg of protein))”. The compound further showed a CC50 at 72 h in [8] of over 2000 nM.

In general, CC50 refers to the concentration that lowers cell viability or growth by half. High values mean lower toxicity to the cells, low ones greater toxicity to the cells.
